Earlier results in patent US20260294906A1, “TREATING PSORIASIS USING A SMALL MOLECULE INHIBITOR OF TUMOR NECROSIS FACTOR ALPHA” (SANOFI, priority 2023, published 2026).

Legend:
sTNFα = settings: O'Connell et al.; cited from earlier work
TNFR1 = settings: Jurkat cells; sTNFα pre-incubated with the substance, compared with sTNFα alone; cited from earlier work

Compound | stabilization of the asymmetric sTNFα trimer (sTNFα) | TNFR1 signaling (RIP-1 ubiquitination and NF-κB phosphorylation) (TNFR1)
Cc1ccc(C)c(Cn2c(C(O)c3ccncc3)nc3ccc(-c4cnn(C)c4)cc32)c1 (stereo not drawn) [UCB-9260, reference compound] | stabilizes the asymmetric sTNFα trimer | impaired
etanercept |  | impaired
